The target in the assay is T1, F508del (Homo sapiens, UniProt P13569, DEL508-508).
T1 construct: expressed in transfected cells
T1 sequence (P13569 with tags, fused parts or gaps DEL508-508): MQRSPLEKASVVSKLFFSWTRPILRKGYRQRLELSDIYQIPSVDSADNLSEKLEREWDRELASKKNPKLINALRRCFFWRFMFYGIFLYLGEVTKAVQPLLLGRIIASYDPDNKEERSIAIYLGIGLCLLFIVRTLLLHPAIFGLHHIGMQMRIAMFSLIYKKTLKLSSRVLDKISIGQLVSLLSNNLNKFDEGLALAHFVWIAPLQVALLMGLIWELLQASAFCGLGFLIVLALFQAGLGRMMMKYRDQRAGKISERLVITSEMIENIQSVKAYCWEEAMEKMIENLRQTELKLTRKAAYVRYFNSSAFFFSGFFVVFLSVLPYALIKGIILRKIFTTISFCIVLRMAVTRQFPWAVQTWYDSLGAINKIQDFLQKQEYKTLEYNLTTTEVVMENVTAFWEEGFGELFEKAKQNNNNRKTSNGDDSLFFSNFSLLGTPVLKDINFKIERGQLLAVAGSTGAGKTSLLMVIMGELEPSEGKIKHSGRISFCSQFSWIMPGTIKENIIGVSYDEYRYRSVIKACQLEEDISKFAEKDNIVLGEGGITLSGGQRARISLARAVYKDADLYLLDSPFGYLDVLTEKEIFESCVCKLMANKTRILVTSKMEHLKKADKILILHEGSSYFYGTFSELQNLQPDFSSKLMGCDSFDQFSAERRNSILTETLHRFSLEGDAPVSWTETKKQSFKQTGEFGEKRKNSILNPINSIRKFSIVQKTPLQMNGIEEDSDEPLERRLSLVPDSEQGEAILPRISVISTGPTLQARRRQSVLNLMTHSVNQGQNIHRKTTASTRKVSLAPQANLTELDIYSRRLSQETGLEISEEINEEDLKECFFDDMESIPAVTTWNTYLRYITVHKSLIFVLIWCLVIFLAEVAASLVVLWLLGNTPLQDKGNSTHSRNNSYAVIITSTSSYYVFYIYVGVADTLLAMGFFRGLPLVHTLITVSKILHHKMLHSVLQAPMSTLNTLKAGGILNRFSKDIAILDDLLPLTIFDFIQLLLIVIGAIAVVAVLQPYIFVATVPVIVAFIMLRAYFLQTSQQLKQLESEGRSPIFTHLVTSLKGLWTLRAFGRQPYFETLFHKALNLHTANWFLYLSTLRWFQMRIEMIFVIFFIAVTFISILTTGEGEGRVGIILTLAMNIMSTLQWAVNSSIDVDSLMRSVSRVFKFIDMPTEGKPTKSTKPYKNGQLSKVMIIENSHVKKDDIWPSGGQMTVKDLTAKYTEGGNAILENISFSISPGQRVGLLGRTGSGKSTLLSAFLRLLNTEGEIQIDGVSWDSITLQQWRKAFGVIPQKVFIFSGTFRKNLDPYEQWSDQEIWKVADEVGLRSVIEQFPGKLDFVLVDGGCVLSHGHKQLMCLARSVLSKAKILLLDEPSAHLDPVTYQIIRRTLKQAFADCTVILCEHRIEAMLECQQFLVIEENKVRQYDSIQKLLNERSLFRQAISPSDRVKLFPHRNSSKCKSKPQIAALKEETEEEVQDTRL
Kind of assay: Protocol 1: membrane potential optical assay (FLIPR III, voltage sensing dye), identification of potentiator compounds. It is filed as cell-based. To be noted: Table 3, compounds of Table 1. In outline: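 Mouse NIH 3T3 fibroblasts stably expressing F508del, temperature-corrected at 27 °C for 24 h, pretreated with compound, then loaded with voltage-sensing redistribution dye. Forskolin was added in a single step with a chloride gradient (chloride-free gluconate bath; Bath Solution #1 HEPES pH 7.4). Membrane-potential fluorescence read on FLIPR III.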
Regarding `COC1CC=C(c2cnc(N3CC(C)CC3(C)C)c(C(=O)NS(=O)(=O)c3cccc(N)n3)c2)CC1` (stereo not drawn) [Compound 1920, N-[(6-amino-2-pyridyl)sulfonyl]-5-(4-methoxycyclohexen-1-yl)-2-(2,2,4-trimethylpyrrolidin-1-yl)pyridine-3-carboxamide], the EC30 entry was “++ (“++” means between 3 uM and 10 uM)”.

`COc1ncccc1S(=O)(=O)NC(=O)c1ccc(-c2cc(F)cc(OC(C)C)c2)nc1-c1ccc(C)cc1` [Compound 798, 6-(3-fluoro-5-isopropoxy-phenyl)-N-[(2-methoxy-3-pyridyl)sulfonyl]-2-(p-tolyl)pyridine-3-carboxamide]: the EC30 result is recorded as “+++ (“+++” means <3 uM)”.

Take `CCOc1cc(C)cc(-c2ccc(C(=O)NS(=O)(=O)c3cccc(N)n3)c(N3C[C@@H](C)CC3(C)C)n2)c1` [Compound 1488, N-[(6-amino-2-pyridyl)sulfonyl]-6-(3-ethoxy-5-methyl-phenyl)-2-[(4S)-2,2,4-trimethylpyrrolidin-1-yl]pyridine-3-carboxamide]: the EC30 result was “+++ (“+++” means <3 uM)”.

As for `CC(C)COc1cc(F)cc(-c2ccc(C(=O)NS(=O)(=O)c3cccc(N)c3)c(N3CC(C)CC3(C)C)n2)c1` (stereo not drawn) [Compound 1184, N-(3-aminophenyl)sulfonyl-6-(3-fluoro-5-isobutoxy-phenyl)-2-(2,2,4-trimethylpyrrolidin-1-yl)pyridine-3-carboxamide], the EC30 result is given as “+++ (“+++” means <3 uM)”.

With `CCOc1cc(C)cc(-c2cnc(N3CC(C)CC3(C)C)c(C(=O)NS(=O)(=O)c3cccc(N)n3)c2)c1` (stereo not drawn) [Compound 1843, N-[(6-amino-2-pyridyl)sulfonyl]-5-(3-ethoxy-5-methyl-phenyl)-2-(2,2,4-trimethylpyrrolidin-1-yl)pyridine-3-carboxamide], the EC30 result is given as “+++ (“+++” means <3 uM)”.

On to `Cc1cc(C)c(C(C)N2Cc3ccccc3C2C(=O)NS(=O)(=O)c2cccc(N)n2)c(C)c1` (stereo not drawn) [Compound 1186, N-[(6-amino-2-pyridyl)sulfonyl]-2-[1-(2,4,6-trimethylphenyl)ethyl]isoindoline-1-carboxamide], for which the EC30 entry is recorded as “+++ (“+++” means <3 uM)”.

Regarding `Cc1cc(C)c(Oc2nc(N(C)CC(C)C)c(C)cc2C(=O)NS(=O)(=O)c2cccc(N)n2)c(C)c1` [Compound 1416, N-[(6-amino-2-pyridyl)sulfonyl]-6-[isobutyl(methyl)amino]-5-methyl-2-(2,4,6-trimethylphenoxy)pyridine-3-carboxamide], the EC30 entry is reported as “+++ (“+++” means <3 uM)”.

Consider `CC(Oc1nc(N2C[C@@H](C)CC2(C)C)c(C(=O)NS(=O)(=O)c2cccc(N)n2)cc1F)C1CCCCC1` (stereo partly drawn) [Compound 1730, N-[(6-amino-2-pyridyl)sulfonyl]-6-(1-cyclohexylethoxy)-5-fluoro-2-[(4S)-2,2,4-trimethylpyrrolidin-1-yl]pyridine-3-carboxamide], for which the EC30 result was “+++ (“+++” means <3 uM)”.

On to `CCC(C)Oc1ccn(-c2ccc(C(=O)NS(=O)(=O)c3cccnc3N)c(N3C[C@@H](C)CC3(C)C)n2)n1` (stereo partly drawn) [Compound 1970, N-[(2-amino-3-pyridyl)sulfonyl]-6-(3-sec-butoxypyrazol-1-yl)-2-[(4S)-2,2,4-trimethylpyrrolidin-1-yl]pyridine-3-carboxamide], for which the EC30 result is “+++ (“+++” means <3 uM)”.

`COc1cccc(S(=O)(=O)NC(=O)c2ccc(-c3cc(F)cc(OCC(C)C)c3)nc2N2C[C@@H](C)CC2(C)C)n1` [Compound 1483, 6-(3-fluoro-5-isobutoxy-phenyl)-N-[(6-methoxy-2-pyridyl)sulfonyl]-2-[(4S)-2,2,4-trimethylpyrrolidin-1-yl]pyridine-3-carboxamide]: the EC30 result was “+++ (“+++” means <3 uM)”.

Turning to `CCOCCOc1cc(-c2ccc(C(=O)NS(=O)(=O)c3cccc(N)n3)c(N3C[C@@H](C)CC3(C)C)n2)cc(C)n1` [Compound 1948, N-[(6-amino-2-pyridyl)sulfonyl]-6-[2-(2-ethoxyethoxy)-6-methyl-4-pyridyl]-2-[(4S)-2,2,4-trimethylpyrrolidin-1-yl]pyridine-3-carboxamide], the EC30 entry is reported as “+++ (“+++” means <3 uM)”.

On to `CC1CN(c2ncccc2C(=O)NS(=O)(=O)c2cccc(Nc3ccc(OC(F)(F)F)cc3)n2)C(C)(C)C1` (stereo not drawn) [Compound 1977, N—[[6-[4-(trifluoromethoxy)anilino]-2-pyridyl]sulfonyl]-2-(2,2,4-trimethylpyrrolidin-1-yl)pyridine-3-carboxamide], for which the EC30 result was “+++ (“+++” means <3 uM)”.

On to `CC(C)Oc1ccc(-c2ccc(C(=O)NS(=O)(=O)c3cccc(N)n3)c(N3CCC[C@@H](c4ccccc4)C3)n2)cn1` [Compound 864, N-[(6-amino-2-pyridyl)sulfonyl]-6-(6-isopropoxy-3-pyridyl)-2-[(3S)-3-phenyl-1-piperidyl]pyridine-3-carboxamide], for which the EC30 entry is on record as “+++ (“+++” means <3 uM)”.

Consider `CC(C)COc1cc(F)cc(-c2ccc(C(=O)NS(=O)(=O)c3ccn[nH]3)c(N3C[C@H](C)C[C@@H](C)C3)n2)c1` [Compound 942, 2-[(3R,5R)-3,5-dimethyl-1-piperidyl]-6-(3-fluoro-5-isobutoxy-phenyl)-N-(1H-pyrazol-5-ylsulfonyl)pyridine-3-carboxamide], for which the EC30 result was “+++ (“+++” means <3 uM)”.

On to `Cc1cc(C)c(Oc2nc(-c3ccc4c(cnn4C)c3)ccc2C(=O)NS(=O)(=O)c2cccc(N)n2)c(C)c1` [Compound 1276, N-[(6-amino-2-pyridyl)sulfonyl]-6-(1-methylindazol-5-yl)-2-(2,4,6-trimethylphenoxy)pyridine-3-carboxamide], for which the EC30 entry is “++ (“++” means between 3 uM and 10 uM)”.

For the compound `CC(C)Oc1ccc(-c2ccc(C(=O)NS(=O)(=O)c3cccc(N)n3)c(N3CC[C@@H](C)C3)n2)cn1` [Compound 1322, N-[(6-amino-2-pyridyl)sulfonyl]-6-(6-isopropoxy-3-pyridyl)-2-[(3R)-3-methylpyrrolidin-1-yl]pyridine-3-carboxamide], the EC30 entry was “++ (“++” means between 3 uM and 10 uM)”.

`Cc1cc(C)c(Oc2nc(C3=CC4CCC3C4)ccc2C(=O)NS(=O)(=O)c2cccc(N)n2)c(C)c1` (stereo not drawn) [Compound 1518, N-[(6-amino-2-pyridyl)sulfonyl]-6-(3-bicyclo[2.2.1]hept-2-enyl)-2-(2,4,6-trimethylphenoxy)pyridine-3-carboxamide]: the EC30 entry is reported as “+++ (“+++” means <3 uM)”.

In the case of `Cc1cc(C)c(Oc2nc(OC(C)(C)C)ccc2C(=O)NS(=O)(=O)c2cccc(N)n2)c(C)c1` [Compound 1070, N-[(6-amino-2-pyridyl)sulfonyl]-6-tert-butoxy-2-(2,4,6-trimethylphenoxy)pyridine-3-carboxamide], the EC30 result was “+++ (“+++” means <3 uM)”.

Consider `Cc1cc(C)c(Oc2nc(C3CCC(F)(F)CC3)ccc2C(=O)NS(=O)(=O)c2ccc[nH]c2=O)c(C)c1` [Compound 1329, 6-(4,4-difluorocyclohexyl)-N-[(2-oxo-1H-pyridin-3-yl)sulfonyl]-2-(2,4,6-trimethylphenoxy)pyridine-3-carboxamide], for which the EC30 result is “++ (“++” means between 3 uM and 10 uM)”.

Consider `CC(C)C(C)c1ccc(C(=O)NS(=O)(=O)c2cccc(N)n2)c(N2C[C@@H](C)CC2(C)C)n1` (stereo partly drawn) [Compound 1489, N-[(6-amino-2-pyridyl)sulfonyl]-6-(1,2-dimethylpropyl)-2-[(4S)-2,2,4-trimethylpyrrolidin-1-yl]pyridine-3-carboxamide], for which the EC30 entry was “+++ (“+++” means <3 uM)”.

For the compound `COc1nccc2c1cc(C(=O)NS(=O)(=O)c1cccc(N)c1)n2Cc1c(C)cc(C)cc1C` [Compound 943, N-(3-aminophenyl)sulfonyl-4-methoxy-1-[(2,4,6-trimethylphenyl)methyl]pyrrolo[3,2-c]pyridine-2-carboxamide], the EC30 entry is given as “+ (“+” means greater than 10 uM)”.

With `CC(=O)Nc1cccc(S(=O)(=O)NC(=O)c2ccc(-c3cc(F)cc(OCC(C)C)c3)nc2N2C[C@@H](C)CC2(C)C)n1` [Compound 1652, N-[(6-acetamido-2-pyridyl)sulfonyl]-6-(3-fluoro-5-isobutoxy-phenyl)-2-[(4S)-2,2,4-trimethylpyrrolidin-1-yl]pyridine-3-carboxamide], the EC30 result is “+++ (“+++” means <3 uM)”.

For the compound `CCN(CC)c1cc(-c2ccc(C(=O)NS(=O)(=O)c3cccc(N)n3)c(N3C[C@@H](C)CC3(C)C)n2)cc(C)n1` [Compound 1739, N-[(6-amino-2-pyridyl)sulfonyl]-6-[2-(diethylamino)-6-methyl-4-pyridyl]-2-[(4S)-2,2,4-trimethylpyrrolidin-1-yl]pyridine-3-carboxamide], the EC30 entry is recorded as “+++ (“+++” means <3 uM)”.

`Cc1nc(OC(C)C)ccc1-c1ccc(C(=O)NS(=O)(=O)c2cccc(N)n2)c(N2[C@H](C)CC[C@@H]2C)n1` [Compound 1623, N-[(6-amino-2-pyridyl)sulfonyl]-2-[(2R,5S)-2,5-dimethylpyrrolidin-1-yl]-6-(6-isopropoxy-2-methyl-3-pyridyl)pyridine-3-carboxamide]: the EC30 entry is listed as “+++ (“+++” means <3 uM)”.

For the compound `CC(C)COc1cncc(-c2ccc(C(=O)NS(=O)(=O)c3cccc(N)n3)c(N3CC(C)CC3(C)C)n2)n1` (stereo not drawn) [Compound 988, N-[(6-amino-2-pyridyl)sulfonyl]-6-(6-isobutoxypyrazin-2-yl)-2-(2,2,4-trimethylpyrrolidin-1-yl)pyridine-3-carboxamide], the EC30 entry is given as “+++ (“+++” means <3 uM)”.

For `CC(C)COc1cc(F)cc(-c2ccc(C(=O)NS(=O)(=O)c3ccn[nH]3)c(N3CCC4(CC3)CC4)n2)c1` [Compound 1127, 2-(6-azaspiro[2.5]octan-6-yl)-6-(3-fluoro-5-isobutoxy-phenyl)-N-(1H-pyrazol-5-ylsulfonyl)pyridine-3-carboxamide], the EC30 result is listed as “+++ (“+++” means <3 uM)”.

Turning to `Cc1ccccc1Nc1cccc(S(=O)(=O)NC(=O)c2cccnc2N2CC(C)CC2(C)C)n1` (stereo not drawn) [Compound 1898, N—[[6-(2-methylanilino)-2-pyridyl]sulfonyl]-2-(2,2,4-trimethylpyrrolidin-1-yl)pyridine-3-carboxamide], the EC30 result was “++ (“++” means between 3 uM and 10 uM)”.

For the origin of these results see patent US10758534B2 (Vertex Pharmaceuticals Incorporated, priority 2014, dated 2020).
